Assay results reported in EP1247803A2, “Indolinone compounds suitable for modulation of protein kinases” (Sugen, Inc., priority 1996, dated 1998).

What was measured:
MET = MET biochemical kinase assay; set-up: species or system human; concentration or dose not given beside the values
In short: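 Capture ELISA: anti-rabbit Fc coat, rabbit anti-MET cytoplasmic domain pAb, lysate MET captured, washed. Compound + kinase buffer (ATP, divalent metals). Readout anti-pTyr-HRP/TMB, colorimetric.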

FLK-1 receptor = biological target: T1, FLK-1 receptor (Mus musculus, UniProt P35918); experiment: FLK-1 ELISA (kinase activity of the FLK-1 receptor in FLK-1/NIH3T3 cells, VEGF stimulated); format: cell-based; set-up: concentration or dose not given beside the values
T1 construct: expressed in transfected cells; host or cells: NIH3T3 C7#3
T1 sequence (P35918 20-1345): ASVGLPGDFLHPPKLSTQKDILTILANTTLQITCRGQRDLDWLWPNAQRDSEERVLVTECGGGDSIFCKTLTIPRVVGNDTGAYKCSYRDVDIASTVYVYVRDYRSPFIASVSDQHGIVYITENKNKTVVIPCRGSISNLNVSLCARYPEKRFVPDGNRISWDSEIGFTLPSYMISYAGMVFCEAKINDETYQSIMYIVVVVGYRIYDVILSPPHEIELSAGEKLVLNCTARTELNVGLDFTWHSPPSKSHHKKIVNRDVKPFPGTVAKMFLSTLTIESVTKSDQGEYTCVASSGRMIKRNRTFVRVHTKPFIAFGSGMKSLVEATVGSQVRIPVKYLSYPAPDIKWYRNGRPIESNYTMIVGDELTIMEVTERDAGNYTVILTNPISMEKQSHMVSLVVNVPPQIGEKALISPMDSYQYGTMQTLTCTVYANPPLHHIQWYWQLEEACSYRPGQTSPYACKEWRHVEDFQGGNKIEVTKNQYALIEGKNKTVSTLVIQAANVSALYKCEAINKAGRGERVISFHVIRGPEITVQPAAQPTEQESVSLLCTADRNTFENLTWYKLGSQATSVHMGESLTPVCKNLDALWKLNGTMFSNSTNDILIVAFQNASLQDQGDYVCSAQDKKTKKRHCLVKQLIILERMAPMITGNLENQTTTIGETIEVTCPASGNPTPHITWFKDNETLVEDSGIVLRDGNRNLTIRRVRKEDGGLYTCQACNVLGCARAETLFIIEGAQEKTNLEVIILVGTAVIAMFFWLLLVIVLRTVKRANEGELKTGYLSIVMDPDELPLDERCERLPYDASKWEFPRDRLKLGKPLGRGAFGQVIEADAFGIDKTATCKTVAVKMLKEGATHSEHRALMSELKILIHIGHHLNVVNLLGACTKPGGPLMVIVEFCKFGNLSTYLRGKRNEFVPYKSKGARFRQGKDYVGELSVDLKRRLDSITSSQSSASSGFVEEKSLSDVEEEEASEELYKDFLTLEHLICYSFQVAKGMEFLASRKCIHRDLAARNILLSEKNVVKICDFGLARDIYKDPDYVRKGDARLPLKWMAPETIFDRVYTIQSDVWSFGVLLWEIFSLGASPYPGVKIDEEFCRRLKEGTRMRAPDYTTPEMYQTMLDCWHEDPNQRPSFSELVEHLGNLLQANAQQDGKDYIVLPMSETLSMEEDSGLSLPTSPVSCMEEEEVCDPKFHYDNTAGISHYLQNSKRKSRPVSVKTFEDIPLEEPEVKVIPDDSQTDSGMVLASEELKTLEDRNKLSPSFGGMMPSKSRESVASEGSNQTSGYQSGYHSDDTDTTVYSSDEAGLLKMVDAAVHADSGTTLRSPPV
In short: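 NIH3T3 C7#3 cells expressing FLK-1 were seeded at 25.000 cells/well, serum-starved overnight in 0.1% FBS, then treated with compound for two hours at 37°C (final DMSO 0.5%) before VEGF stimulation. Receptor was captured on anti-rabbit IgG-coated ELISA plates bearing affinity-purified anti-FLK-1 antiserum.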

**Q.** For `O=C1Nc2ccc(S(=O)(=O)Nc3ccc(C(F)(F)F)cc3)cc2C1=Cc1ccc([N+](=O)[O-])c(O)c1` [10724/E04], which “Met Kinase % Inhibition” value (MET) is on record?
**A.** 93.3%

**Q.** And the “Fik Kinase %Inhibition” value (FLK-1 receptor)?
**A.** 55.2%

**Q.** `O=C1Nc2c(Br)cc(Br)cc2C1=Cc1sccc1Br` [10725/A02] was tested. Which “Met Kinase % Inhibition” value (MET) did it give?
**A.** 46.6%

**Q.** What about the “Fik Kinase %Inhibition” value (FLK-1 receptor) of the same compound?
**A.** -2.0%

**Q.** Which results are given for `O=C1Nc2c(Br)cc(Br)cc2C1=Cc1ccc(O)c([N+](=O)[O-])c1` [10724/A03]?
**A.** Met Kinase % Inhibition (MET): 30.7%; Fik Kinase %Inhibition (FLK-1 receptor): -7.8%

**Q.** With `Cc1c(Br)ccc2c1C(=Cc1ccc(O)c([N+](=O)[O-])c1)C(=O)N2` [10724/C03] as the compound, how does the “Met Kinase % Inhibition” value (MET) read?
**A.** 68.7%

**Q.** And the “Fik Kinase %Inhibition” value (FLK-1 receptor)?
**A.** -20.3%

**Q.** What does the source list for `CNS(=O)(=O)c1ccc2c(c1)C(=Cc1ccc([N+](=O)[O-])c(O)c1)C(=O)N2` [10724/D04]?
**A.** Met Kinase % Inhibition (MET): 70.5%; Fik Kinase %Inhibition (FLK-1 receptor): 0.5%

**Q.** For `O=C1Nc2ccc(I)cc2C1=Cc1c(Br)cnn1-c1ccc(Cl)cc1` [10725/B10], which “Met Kinase % Inhibition” value (MET) is on record?
**A.** 69.9%

**Q.** What about the “Fik Kinase %Inhibition” value (FLK-1 receptor) of the same compound?
**A.** 5.1%

**Q.** What does the source list for `CCc1ccc(C=C2C(=O)Nc3ccc(Br)c(C)c32)o1` [10724/C10]?
**A.** Met Kinase % Inhibition (MET): 91.2%; Fik Kinase %Inhibition (FLK-1 receptor): -2.3%

**Q.** Which “Met Kinase % Inhibition” value (MET) does the source give for `O=C1Nc2ccc(I)cc2C1=Cc1c[nH]cn1` [10725/B11] here?
**A.** 76.3%

**Q.** And the “Fik Kinase %Inhibition” value (FLK-1 receptor)?
**A.** -42.3%

**Q.** `O=CN1CCN(c2ccc(C=C3C(=O)Nc4ccc(I)cc43)cc2)CC1` [10725/B07] was tested. Which “Met Kinase % Inhibition” value (MET) did it give?
**A.** 74.0%

**Q.** What about the “Fik Kinase %Inhibition” value (FLK-1 receptor) of the same compound?
**A.** 24.6%

**Q.** What does the source list for `COc1ccc(Br)c(C=C2C(=O)Nc3ccc(I)cc32)c1O` [10725/B03]?
**A.** Met Kinase % Inhibition (MET): 70.8%; Fik Kinase %Inhibition (FLK-1 receptor): 4.9%

**Q.** Which “Met Kinase % Inhibition” value (MET) does the source give for `O=C1Nc2ccc(CCCl)cc2C1=Cc1cc2ccccc2o1` [10724/G07] here?
**A.** 2.3%

**Q.** What about the “Fik Kinase %Inhibition” value (FLK-1 receptor) of the same compound?
**A.** -1.9%

**Q.** How did the “Met Kinase % Inhibition” value (MET) turn out when `CC(C)c1cc(C=C2C(=O)Nc3ccc(I)cc32)cc(C(C)C)c1O` [10724/B06] was run?
**A.** 52.1%

**Q.** And the “Fik Kinase %Inhibition” value (FLK-1 receptor)?
**A.** 13.4%

**Q.** `Cc1c(Br)cc(Br)c2c1C(=Cc1c(Br)cnn1-c1ccc(Cl)cc1)C(=O)N2` [10725/A10] was tested. Which “Met Kinase % Inhibition” value (MET) did it give?
**A.** 43.2%

**Q.** What about the “Fik Kinase %Inhibition” value (FLK-1 receptor) of the same compound?
**A.** -3.2%

**Q.** What does the source list for `O=C1Nc2ccc(I)cc2C1=Cc1sccc1Br` [10725/B02]?
**A.** Met Kinase % Inhibition (MET): 66.9%; Fik Kinase %Inhibition (FLK-1 receptor): -2.8%

**Q.** With `Cc1cc(C=C2C(=O)Nc3ccc(I)cc32)[nH]n1` [10725/B05] as the compound, how does the “Met Kinase % Inhibition” value (MET) read?
**A.** 68.3%

**Q.** What about the “Fik Kinase %Inhibition” value (FLK-1 receptor) of the same compound?
**A.** -61.0%

**Q.** For `O=C1Nc2ccc(I)cc2C1=Cc1cccn1-c1ccc(Cl)cc1` [10724/B09], which “Met Kinase % Inhibition” value (MET) is on record?
**A.** 43.8%

**Q.** What about the “Fik Kinase %Inhibition” value (FLK-1 receptor) of the same compound?
**A.** 3.5%

**Q.** How did the “Met Kinase % Inhibition” value (MET) turn out when `Cc1c(Br)ccc2c1C(=Cc1cc3ccccc3o1)C(=O)N2` [10724/C07] was run?
**A.** 14.2%

**Q.** And the “Fik Kinase %Inhibition” value (FLK-1 receptor)?
**A.** -1.2%

**Q.** Which “Met Kinase % Inhibition” value (MET) does the source give for `CNS(=O)(=O)c1ccc2c(c1)C(=Cc1cc(C(C)C)c(O)c(C(C)C)c1)C(=O)N2` [10724/D06] here?
**A.** 23.0%

**Q.** What about the “Fik Kinase %Inhibition” value (FLK-1 receptor) of the same compound?
**A.** 12.4%

**Q.** With `O=C1Nc2c(Br)cc(Br)cc2C1=Cc1cc2ccccc2o1` [10724/A07] as the compound, how does the “Met Kinase % Inhibition” value (MET) read?
**A.** 58.7%

**Q.** And the “Fik Kinase %Inhibition” value (FLK-1 receptor)?
**A.** 3.7%

**Q.** For `O=C1Nc2ccc(S(=O)(=O)N3CCOCC3)cc2C1=Cc1cccs1` [10717/F03], which “Met Kinase % Inhibition” value (MET) is on record?
**A.** 42.8%

**Q.** What about the “Fik Kinase %Inhibition” value (FLK-1 receptor) of the same compound?
**A.** 0.5%

**Q.** Which results are given for `CCc1ccc(C=C2C(=O)Nc3ccc(I)cc32)o1` [10724/B10]?
**A.** Met Kinase % Inhibition (MET): 95.0%; Fik Kinase %Inhibition (FLK-1 receptor): 8.5%

**Q.** With `Cc1csc2sc(C=C3C(=O)Nc4c(Br)cc(Br)cc43)c(C)c12` [10724/A11] as the compound, how does the “Met Kinase % Inhibition” value (MET) read?
**A.** 27.2%

**Q.** What about the “Fik Kinase %Inhibition” value (FLK-1 receptor) of the same compound?
**A.** 12.8%

**Q.** `COC(=O)Cc1c(Cl)[nH]c(C=C2C(=O)Nc3ccc(I)cc32)c1C(=O)OC` [10725/B09] was tested. Which “Met Kinase % Inhibition” value (MET) did it give?
**A.** 65.7%

**Q.** What about the “Fik Kinase %Inhibition” value (FLK-1 receptor) of the same compound?
**A.** 0.4%

**Q.** What does the source list for `O=C1Nc2ccc(CCCl)cc2C1=Cc1cccn1-c1ccc(Cl)cc1` [10724/G09]?
**A.** Met Kinase % Inhibition (MET): -2.8%; Fik Kinase %Inhibition (FLK-1 receptor): 9.1%

**Q.** Which “Met Kinase % Inhibition” value (MET) does the source give for `Cc1csc2sc(C=C3C(=O)Nc4ccc(S(=O)(=O)Nc5ccc(C(F)(F)F)cc5)cc43)c(C)c12` [10724/E11] here?
**A.** 39.3%

**Q.** What about the “Fik Kinase %Inhibition” value (FLK-1 receptor) of the same compound?
**A.** 5.1%

**Q.** `Cn1cccc1C=C1C(=O)Nc2ccc(S(=O)(=O)N3CCOCC3)cc21` [10717/F04] was tested. Which “Met Kinase % Inhibition” value (MET) did it give?
**A.** 11.4%

**Q.** And the “Fik Kinase %Inhibition” value (FLK-1 receptor)?
**A.** -0.1%

**Q.** Which results are given for `Cc1c(Br)ccc2c1C(=Cc1sc3scc(C)c3c1C)C(=O)N2` [10724/C11]?
**A.** Met Kinase % Inhibition (MET): 4.9%; Fik Kinase %Inhibition (FLK-1 receptor): 10.3%

**Q.** For `Cc1c(Br)ccc2c1C(=Cc1cccn1-c1ccc(Cl)cc1)C(=O)N2` [10724/C09], which “Met Kinase % Inhibition” value (MET) is on record?
**A.** 5.3%

**Q.** And the “Fik Kinase %Inhibition” value (FLK-1 receptor)?
**A.** 9.3%

**Q.** What does the source list for `Cc1[nH]c(C=C2C(=O)Nc3ccc(S(=O)(=O)Nc4ccc(C(F)(F)F)cc4)cc32)c(Br)c1Br` [10717/E11]?
**A.** Met Kinase % Inhibition (MET): 75.1%; Fik Kinase %Inhibition (FLK-1 receptor): 8.9%

**Q.** Which results are given for `O=CN1CCN(c2ccc(C=C3C(=O)Nc4c(Br)cc(Br)cc43)cc2)CC1` [10725/A07]?
**A.** Met Kinase % Inhibition (MET): 59.3%; Fik Kinase %Inhibition (FLK-1 receptor): -12.3%
